The values that follow come from patent publication US10188674B2, “Parenteral formulations for administering macrolide antibiotics” (Cempra Pharmaceuticals, Inc., priority 2012, dated 2019).

A short description of data set [1]: Dynamic Precipitation Model (absorbance at 500 nm on infusion into blood surrogate). In kind it is physicochemical. How it is done: Dynamic Precipitation Model. The dynamic precipitation apparatus is shown in FIG. 1, and is also described in Johnson et al., (2003). The apparatus includes a predetermined distance, illustratively a 15 cm distance, between the tip of the injection needle and the UV flow cell, and three main components to simulate blood flow and different infusion rates of drug. Illustratively, a Cole-Palmer-Masterflex® 7520-00 peristaltic pump is used to direct the flow of blood surrogate at 5 mL/min. Illustratively, a Harvard Apparatus Precision Syringe Pump 22 is used to infuse drug formulations into the system at various injection rates. Illustratively, a Cary UV-50 Bio Spectrophotometer with a 1.00 cm flow cell is used to monitor absorbance as a measure of precipitation in the formulation-blood surrogate system. Each sample is prepared by dissolving test compound and formulation agents into water or vehicle, and adjusting the pH with either 1 M HCl or 1 M NaOH, as appropriate to the indicated final concentration of test compound. Lactic, citric, and tartaric acid formulation agent stock solutions are made by dissolving the predetermined weight of solid or liquid into water and adjusting pH with either 1 M HCl or 1 M NaOH. The blood surrogate (Isotonic Sorensen's Phosphate Buffer, 0.067 M, pH 7.4) is pumped from a reservoir through Tygon® tubing (R-6306) fitted with 2 IV-set Y-injection sites that pass into the flow cell and terminate in a waste container. […]-35 flow meter, along with a timer and graduated cylinder, is used to measure the rate of surrogate blood flow through the system. Illustratively, flow is 5 mL/min. The test compound formulations are infused at different rates through the downstream second Y-injection site into the flow of the blood surrogate entering into the flow cell. A 0.001 M HCl solution is injected into the first Y-injection site following each infusion of test compound to flush the downstream tubing and flow cell. All injections are performed at 25° C. The spectrophotometer software (Cary UVWin) is set to read a constant absorbance, illustratively 500 nm, versus time. Samples are made with buffer and drug concentrations as described. After the flow rate is confirmed at 5 mL/min, the spectrophotometer is set to record absorbance at 500 nm for 5-10 minutes, and injections are performed at different rates as specified. To prevent any residual precipitation build up in the tubing or flow cell, a flush of pH 3 HCl is performed between injections. The flow cell is optionally visually inspected between runs for the presence of precipitation. Static precipitation measurements are also optionally performed by a two-fold serial dilution of test compound formulation in blood surrogate using a laser pointer as a Tyndall beam to determine the presence of particulates. […] An absorbance at or above 0.05 is considered to be the threshold level for assessing precipitation having phlebitic potential.

The nature of data set [2]: Acid dissociation constants of SOL. In kind it is physicochemical. The text has this: [drawing 4] and pharmaceutically acceptable salts, hydrates, solvates, esters, and prodrugs thereof. The following acid dissociation constants are observed for SOL, pKa1=9.44; pKa2=3.5. Such dissociation constants are illustrative of compounds that may be characterized as having low basicity.

Data set [3] has as its system New Zealand White female rabbits. Briefly: Tolerance Evaluation, Multiple-Dose Rabbit Ear Vein Model Study. The format is in vivo. As to the method:
Tolerance Evaluation of Following Intravenous Infusion in the Rabbit. Multiple-Dose Rabbit Ear Vein Model Study. New Zealand White female rabbits weighing 2.5-3.2 kg are evaluated for pain, ear inflammation and phlebitis after receiving an intravenous infusion of test compound once daily for 5 days.
SOL is dissolved in a 0.5% lactic acid formulation at pH 4, and then into 0.45% saline at concentrations of 2 mg/mL or 3 mg/mL.
Four rabbits are dosed; one vehicle-dosed and one each at 2 mg/mL (rate of 3 mL/min), 3 mg/mL (rate of 3 mL/min) and 3 mg/mL (rate of 4 mL/min). All rabbits receive a dose volume of 5 mL and are dosed via intravenous infusion in the right marginal ear vein once daily for 5 days. Animals are observed during and post (30 minutes) each infusion and reactions recorded.

Another data set has as its system dog. The data set is described as follows: 28 day toxicology study, intravenous infusion, dog. The format is in vivo. The settings on record: 28 days, tartrate-buffered solution of 1 mg/mL in 3% mannitol infused at approximately 1 mL/min. An excerpt:
(§1) An intravenous infusion solution of SOL and related compounds suitable for treatment in a disease such as moderately severe to severe community acquired bacterial pneumonia (CABP) is needed. […] However, without being bound by theory, it is believed herein that infusion at higher concentrations and/or at higher rates of infusion, which are highly desirable in the clinical setting, may not be practical with current formulations due to the substantially lower solubility observed with SOL and related compounds compared to other macrolide, enolide, and ketolide compounds.

The test system of the next data set is monkey. Briefly: 28 day toxicology study, intravenous infusion, monkey. The format is in vivo. The settings on record: 28 days, tartrate-buffered solution of 1 mg/mL in 3% mannitol infused at approximately 1 mL/min.
Description: as §1

In the case of `CC[C@H]1OC(=O)[C@H](C)[C@@H](O[C@H]2C[C@@](C)(OC)[C@@H](O)[C@H](C)O2)[C@H](C)[C@@H](O[C@@H]2O[C@H](C)C[C@H](N(C)C)[C@H]2O)[C@](C)(O)C[C@@H](C)C(=O)[C@H](C)[C@@H](O)[C@]1(C)O` [erythromycin-lactobionate, erythromycin lactobionate, reference compound], the Absorbance entry in data set [1] (2 mg/mL, 3 mL/min, 0.9% NaCl) is on record as “++++ ((++++) = BQL of <0.003)”.

Consider `CC[C@H]1OC(=O)[C@@](C)(F)C(=O)[C@H](C)[C@@H](O[C@@H]2O[C@H](C)C[C@H](N(C)C)[C@H]2O)[C@](C)(OC)C[C@@H](C)C(=O)[C@H](C)[C@H]2N(CCCCn3cc(-c4cccc(N)c4)nn3)C(=O)O[C@]12C` [SOL, solithromycin], for which the pKa1 in data set [2] was 9.44. Besides, the pKa2 in data set [2] was determined as 3.5. Further, the Absorbance result in data set [1] (1 mg/mL in 0.45% Saline, 0.3 mL/min) was “BQL”; in data set [1] (1 mg/mL in 0.45% Saline, 1.0 mL/min), “BQL”; in data set [1] (1 mg/mL in 0.45% Saline, 3.0 mL/min) it was “BQL”; in data set [1] (1 mg/mL in 0.45% Saline, 6.0 mL/min), “about 0.1”; in data set [1] (1 mg/mL in 5% Mannitol, 0.3 mL/min), “BQL”; in data set [1] (1 mg/mL in 5% Mannitol, 1.0 mL/min), “BQL”. In addition, the Absorbance in data set [1] (1 mg/mL in 5% Mannitol, 3.0 mL/min) is given as 0.01; in data set [1] (1 mg/mL in 5% Mannitol, 6.0 mL/min), “about 0.05”; in data set [1] (2 mg/mL in 0.45% Saline, 0.3 mL/min), “BQL”; in data set [1] (2 mg/mL in 0.45% Saline, 1.0 mL/min), “BQL”; in data set [1] (2 mg/mL in 0.45% Saline, 3.0 mL/min) it was “about 0.02”; in data set [1] (2 mg/mL in 0.45% Saline, 6.0 mL/min) it was “about 0.1”. Also, the Absorbance result is “BQL” in data set [1] (2 mg/mL in 5% Mannitol, 0.3 mL/min); “about 0.03” in data set [1] (2 mg/mL in 5% Mannitol, 1.0 mL/min); “about 0.06” in data set [1] (2 mg/mL in 5% Mannitol, 3.0 mL/min); “about 0.1” in data set [1] (2 mg/mL in 5% Mannitol, 6.0 mL/min); “BQL” in data set [1] (3 mg/mL in 0.45% Saline, 0.3 mL/min); “about 0.02” in data set [1] (3 mg/mL in 0.45% Saline, 1.0 mL/min). The Absorbance result in data set [1] (3 mg/mL in 0.45% Saline, 3.0 mL/min) is “about 0.1”; in data set [1] (3 mg/mL in 0.45% Saline, 6.0 mL/min) it was “about 0.3”; in data set [1] (3 mg/mL in 5% Mannitol, 0.3 mL/min) it was “BQL”; in data set [1] (3 mg/mL in 5% Mannitol, 1.0 mL/min) it was “about 0.1”; in data set [1] (3 mg/mL in 5% Mannitol, 3.0 mL/min) it was “about 0.4”; in data set [1] (3 mg/mL in 5% Mannitol, 6.0 mL/min), “about 0.6”. The Absorbance result in data set [1] (3 mg/mL, 3 mL/min, pH 4.0, 0.9% NaCl) is “− ((−) = ≥0.05)”. The “injection rates at which precipitation is noted” value in data set [1] (1 mg/mL in 5% Mannitol) is reported as “greater than or equal to 3.0 mL/min”; in data set [1] (2 mg/mL in 5% Mannitol), “greater than or equal to 1.0 mL/min”; in data set [1] (3 mg/mL in 0.45% Saline), “greater than or equal to 1.0 mL/min”; in data set [1] (3 mg/mL in 5% Mannitol), “greater than or equal to 1.0 mL/min”; in data set [1] (2 or 1 mg/mL in 0.45% saline, 1.0 mL/min is borderline) it was “greater than 1.0 mL/min”. Further, the precipitation result in data set [1] (2 mg/mL in 10 mM Tartaric Acid in 5% Mannitol, pH 4.2, 3 mL/min, infusion 1 minute) is “minimal precipitation”; in data set [1] (2 mg/mL in 20 mM Tartaric Acid in 5% Mannitol, pH 4.2, 3 mL/min, infusion 1 minute), “minimal precipitation”; in data set [1] (2 mg/mL in 38.5 mM Tartaric Acid and 0.5% Monothioglycerol in 3% Mannitol, pH 4.0, 2, 3 or 4 mL/min, infusion 5 minutes), “minimal precipitation”; in data set [1] (2 mg/mL in 38.5 mM Tartaric Acid in 5% Mannitol, pH 4.0, 2, 3 or 4 mL/min, infusion 5 minutes), “minimal precipitation”. The “effect of tartaric acid on observed precipitation” value in data set [1] (3 mg/mL in 5 mM Tartaric Acid in 5% Mannitol pH 4.2 vs SOL 2 mg/mL in 5% Mannitol, 2 or 3 mL/min, infusion 2 minutes) is “substantially decreases the amount of observed precipitation”. Besides, in data set [1] (0.5, 1 and 5 mM citrate buffer (pH 4) in 0.45% saline, 2 mg/mL and 3 mg/mL), the “effect of citrate buffer on precipitation” value is on record as “does not significantly reduce precipitation”. For the same compound, in data set [1] (10 or 25 mM tartrate buffer (pH 4) in 0.45% saline, 2 mg/mL and 3 mg/mL), the “effect of tartrate buffer on precipitation” value is “does not significantly reduce precipitation”. Also, the “observations, Days 4 and 5” value in data set [3] (2 mg/mL, rate of 3 mL/min, also seen in the vehicle-treated rabbit) was “mechanical irritation around the needle stick, without reaction distal to the needle”. In addition, the further observation result in data set [3] (3 mg/mL, rate of 4 mL/min) is “Head and ear twitching”. Besides, the “observations, Day 3 until day 5” value in data set [3] (3 mg/mL, rates of 3 or 4 mL/min) is “vessel dilation and irritation around and past the needle stick”. Further, the “adverse effects, Days 1 and 2” value in data set [3] (0.5% lactic acid formulation pH 4 in 0.45% saline, 5 mL once daily for 5 days, any of the rabbits) is recorded as “No adverse effects”. The “pain or other adverse events” value in the data set on dog and with monkey was “without evidence of pain or other adverse events” in each case.
